Reference: patent publication US8101550B2, “Anthranilic acid diamide derivative with hetero-aromatic and hetero-cyclic substituents” (Bayer Cropscience AG, priority 2006, dated 2012)

assay: log P determination by HPLC on reverse-phase column (EEC Directive 79/831 Annex V.A8); format: physicochemical
In short: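 Log P was derived from retention times by linear interpolation between successive unbranched alkan-2-one standards (C3–C16). The standards and samples ran on a C18 reverse-phase column at 43 °C with a 10→95% acetonitrile gradient in 0.1% formic acid (pH 2.7). The method follows EEC Directive 79/831 Annex V.A8.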

Going from Cc1cc(F)cc(C(=O)NC(C)C)c1NC(=O)c1cc(Cn2cc(C(F)(F)C(F)(F)F)c(C(F)(F)C(F)(F)F)n2)nn1-c1ncccc1Cl [I-1-217] to Cc1cc(I)cc(C(=O)NC(C)C)c1NC(=O)c1cc(Cn2cc(C(F)(F)C(F)(F)F)c(C(F)(F)C(F)(F)F)n2)nn1-c1ncccc1Cl [I-1-240], the logP rises from 4.47 to 4.96.

First: Cc1cc(F)cc(C(=O)NC(C)C)c1NC(=O)c1cc(Cn2nc(C(F)(F)F)nc2C(F)(F)F)nn1-c1ncccc1Cl [I-1-218]
Second: Cc1cc(I)cc(C(=O)NC(C)C)c1NC(=O)c1cc(Cn2nc(C(F)(F)F)nc2C(F)(F)F)nn1-c1ncccc1Cl [I-1-238]
The logP of the first is lower: 3.55 for the first, 4.06 for the second.

Compared with CNC(=O)c1cc(F)cc(C)c1NC(=O)c1cc(Cn2nc(C(F)(F)F)nc2C(F)(F)F)nn1-c1ncccc1Cl [I-1-219], CNC(=O)c1cc(I)cc(C)c1NC(=O)c1cc(Cn2nc(C(F)(F)F)nc2C(F)(F)F)nn1-c1ncccc1Cl [I-1-237] is higher in logP: 3.12 for the first, 3.60 for the second.

First: CNC(=O)c1cc(F)cc(C)c1NC(=O)c1cc(Cn2cc(C(F)(F)C(F)(F)F)c(C(F)(F)C(F)(F)F)n2)nn1-c1ncccc1Cl [I-1-220]
Second: CNC(=O)c1cc(I)cc(C)c1NC(=O)c1cc(Cn2cc(C(F)(F)C(F)(F)F)c(C(F)(F)C(F)(F)F)n2)nn1-c1ncccc1Cl [I-1-239]
The logP of the first is lower: 4.06 for the first, 4.51 for the second.

First: CNC(=O)c1cc(F)cc(C)c1NC(=O)c1cc(Cn2nc(C(F)(F)F)cc2C(F)(F)F)nn1-c1ncccc1Cl [I-1-221]
Second: CNC(=O)c1cc(I)cc(C)c1NC(=O)c1cc(Cn2nc(C(F)(F)F)cc2C(F)(F)F)nn1-c1ncccc1Cl [I-1-227]
The logP of the first is lower: 3.32 for the first, 3.87 for the second.

Going from CNC(=O)c1cc(F)cc(C)c1NC(=O)c1cc(Cn2ccc(C(F)(F)F)n2)nn1-c1ncccc1Cl [I-1-222] to CNC(=O)c1cc(I)cc(C)c1NC(=O)c1cc(Cn2ccc(C(F)(F)F)n2)nn1-c1ncccc1Cl [I-1-247], the logP rises from 2.58 to 3.05.

Compared with CNC(=O)c1cc(F)cc(C)c1NC(=O)c1cc(Cn2cc(Cl)c(C(F)(F)C(F)(F)F)n2)nn1-c1ncccc1Cl [I-1-223], CNC(=O)c1cc(I)cc(C)c1NC(=O)c1cc(Cn2cc(Cl)c(C(F)(F)C(F)(F)F)n2)nn1-c1ncccc1Cl [I-1-243] is higher in logP: 3.47 for the first, 3.96 for the second.

Compared with Cc1cc(F)cc(C(=O)NC(C)C)c1NC(=O)c1cc(Cn2cc(Cl)c(C(F)(F)C(F)(F)F)n2)nn1-c1ncccc1Cl [I-1-224], Cc1cc(I)cc(C(=O)NC(C)C)c1NC(=O)c1cc(Cn2cc(Cl)c(C(F)(F)C(F)(F)F)n2)nn1-c1ncccc1Cl [I-1-242] is higher in logP: 3.89 for the first, 4.40 for the second.

Compared with Cc1cc(F)cc(C(=O)NC(C)C)c1NC(=O)c1cc(Cn2nc(C(F)(F)F)cc2C(F)(F)F)nn1-c1ncccc1Cl [I-1-225], Cc1cc(I)cc(C(=O)NC(C)C)c1NC(=O)c1cc(Cn2nc(C(F)(F)F)cc2C(F)(F)F)nn1-c1ncccc1Cl [I-1-230] is higher in logP: 3.77 for the first, 4.29 for the second.

Compared with Cc1cc(F)cc(C(=O)NC(C)C)c1NC(=O)c1cc(Cn2ccc(C(F)(F)F)n2)nn1-c1ncccc1Cl [I-1-226], Cc1cc(I)cc(C(=O)NC(C)C)c1NC(=O)c1cc(Cn2ccc(C(F)(F)F)n2)nn1-c1ncccc1Cl [I-1-248] is higher in logP: 3.00 for the first, 3.51 for the second.

Compared with CCNC(=O)c1cc(I)cc(C)c1NC(=O)c1cc(Cn2nc(C(F)(F)F)cc2C(F)(F)F)nn1-c1ncccc1Cl [I-1-228], CCCNC(=O)c1cc(I)cc(C)c1NC(=O)c1cc(Cn2nc(C(F)(F)F)cc2C(F)(F)F)nn1-c1ncccc1Cl [I-1-229] is higher in logP: 4.06 for the first, 4.33 for the second.

First: Cc1cc(I)cc(C(=O)NC2CC2)c1NC(=O)c1cc(Cn2nc(C(F)(F)F)cc2C(F)(F)F)nn1-c1ncccc1Cl [I-1-231]
Second: Cc1cc(I)cc(C(=O)NCC2CC2)c1NC(=O)c1cc(Cn2nc(C(F)(F)F)cc2C(F)(F)F)nn1-c1ncccc1Cl [I-1-235]
The logP of the first is lower: 4.01 for the first, 4.34 for the second.

Going from Cc1cc(I)cc(C(=O)NCC(F)(F)F)c1NC(=O)c1cc(Cn2nc(C(F)(F)F)cc2C(F)(F)F)nn1-c1ncccc1Cl [I-1-232] to Cc1cc(I)cc(C(=O)NCC#N)c1NC(=O)c1cc(Cn2nc(C(F)(F)F)cc2C(F)(F)F)nn1-c1ncccc1Cl [I-1-241], the logP falls from 5.28 to 3.73.

First: Cc1cc(I)cc(C(=O)NC(C)C2CC2)c1NC(=O)c1cc(Cn2nc(C(F)(F)F)cc2C(F)(F)F)nn1-c1ncccc1Cl (stereo not drawn) [I-1-233]
Second: Cc1cc(I)cc(C(=O)NC(C2CC2)C2CC2)c1NC(=O)c1cc(Cn2nc(C(F)(F)F)cc2C(F)(F)F)nn1-c1ncccc1Cl [I-1-236]
The logP of the first is lower: 4.55 for the first, 4.80 for the second.

Compared with Cc1cc(I)cc(C(N)=O)c1NC(=O)c1cc(Cn2nc(C(F)(F)F)cc2C(F)(F)F)nn1-c1ncccc1Cl [I-1-234], Cc1cc(I)cc(C(=O)N(C)C)c1NC(=O)c1cc(Cn2nc(C(F)(F)F)cc2C(F)(F)F)nn1-c1ncccc1Cl [I-1-256] is higher in logP: 3.56 for the first, 3.84 for the second.

First: CCNC(=O)c1cc(I)cc(C)c1NC(=O)c1cc(Cn2nc(C(F)(F)F)nc2C(F)(F)F)nn1-c1ncccc1Cl [I-1-244]
Second: Cc1cc(I)cc(C(=O)NCC#N)c1NC(=O)c1cc(Cn2nc(C(F)(F)F)nc2C(F)(F)F)nn1-c1ncccc1Cl [I-1-245]
The logP of the first is higher: 3.83 for the first, 3.53 for the second.

Going from Cc1cc(I)cc(C(=O)NCC#N)c1NC(=O)c1cc(Cn2cc(Cl)c(C(F)(F)C(F)(F)F)n2)nn1-c1ncccc1Cl [I-1-246] to CCNC(=O)c1cc(I)cc(C)c1NC(=O)c1cc(Cn2cc(Cl)c(C(F)(F)C(F)(F)F)n2)nn1-c1ncccc1Cl [I-1-277], the logP rises from 3.85 to 4.17.

Cc1cc(I)cc(C(=O)NC2CC2)c1NC(=O)c1cc(Cn2ccc(C(F)(F)F)n2)nn1-c1ncccc1Cl [I-1-249] and CCNC(=O)c1cc(I)cc(C)c1NC(=O)c1cc(Cn2ccc(C(F)(F)F)n2)nn1-c1ncccc1Cl [I-1-250] are within 0.2 log units of each other in logP: 3.27 for the first, 3.28 for the second.

First: Cc1cc(I)cc(C(=O)NCC#N)c1NC(=O)c1cc(Cn2ccc(C(F)(F)F)n2)nn1-c1ncccc1Cl [I-1-251]
Second: Cc1cc(I)cc(C(N)=O)c1NC(=O)c1cc(Cn2ccc(C(F)(F)F)n2)nn1-c1ncccc1Cl [I-1-273]
The logP of the first is higher: 3.04 for the first, 2.84 for the second.

Going from Cc1cc(I)cc(C(=O)NC2CC2)c1NC(=O)c1cc(Cn2nc(C(F)(F)F)nc2C(F)(F)F)nn1-c1ncccc1Cl [I-1-252] to Cc1cc(I)cc(C(=O)NC2CCCC2)c1NC(=O)c1cc(Cn2nc(C(F)(F)F)nc2C(F)(F)F)nn1-c1ncccc1Cl [I-1-279], the logP rises from 3.81 to 4.47.

Going from Cc1cc(I)cc(C(=O)NCC2CC2)c1NC(=O)c1cc(Cn2nc(C(F)(F)F)nc2C(F)(F)F)nn1-c1ncccc1Cl [I-1-253] to Cc1cc(I)cc(C(N)=O)c1NC(=O)c1cc(Cn2nc(C(F)(F)F)nc2C(F)(F)F)nn1-c1ncccc1Cl [I-1-272], the logP falls from 4.13 to 3.38.

Going from Cc1cc(I)cc(C(=O)NCC2CC2)c1NC(=O)c1cc(Cn2cc(Cl)c(C(F)(F)C(F)(F)F)n2)nn1-c1ncccc1Cl [I-1-254] to Cc1cc(I)cc(C(=O)NC2CC2)c1NC(=O)c1cc(Cn2cc(Cl)c(C(F)(F)C(F)(F)F)n2)nn1-c1ncccc1Cl [I-1-276], the logP falls from 4.47 to 4.15.

CNC(=O)c1cc(Cl)cc(C)c1NC(=O)c1cc(Cn2nc(C(F)F)c([N+](=O)[O-])c2C(F)F)nn1-c1ncccc1Cl [I-1-257] and CNC(=O)c1cc(Cl)cc(Cl)c1NC(=O)c1cc(Cn2nc(C(F)F)c([N+](=O)[O-])c2C(F)F)nn1-c1ncccc1Cl [I-1-266] are within 0.2 log units of each other in logP: 2.92 for the first, 2.99 for the second.

Cc1cc(Cl)cc(C(=O)NC(C)C)c1NC(=O)c1cc(Cn2nc(C(F)F)c([N+](=O)[O-])c2C(F)F)nn1-c1ncccc1Cl [I-1-258] and CC(C)NC(=O)c1cc(Cl)cc(Cl)c1NC(=O)c1cc(Cn2nc(C(F)F)c([N+](=O)[O-])c2C(F)F)nn1-c1ncccc1Cl [I-1-259] are within 0.2 log units of each other in logP: 3.32 for the first, 3.27 for the second.

Cc1cc(Cl)cc(C(=O)NC2CC2)c1NC(=O)c1cc(Cn2nc(C(F)F)c([N+](=O)[O-])c2C(F)F)nn1-c1ncccc1Cl [I-1-260] and O=C(NC1CC1)c1cc(Cl)cc(Cl)c1NC(=O)c1cc(Cn2nc(C(F)F)c([N+](=O)[O-])c2C(F)F)nn1-c1ncccc1Cl [I-1-261] are within 0.2 log units of each other in logP: 3.12 for the first, 3.08 for the second.

Going from CSc1ncn(Cc2cc(C(=O)Nc3c(C)cc(Cl)cc3C(=O)NC(C)C)n(-c3ncccc3Cl)n2)n1 [I-1-262] to CNC(=O)c1cc(Cl)cc(C)c1NC(=O)c1cc(Cn2cnc(SC)n2)nn1-c1ncccc1Cl [I-1-265], the logP falls from 2.31 to 1.94.

Compared with CSc1ncn(Cc2cc(C(=O)Nc3c(C)cc(Cl)cc3C(=O)NC3CC3)n(-c3ncccc3Cl)n2)n1 [I-1-263], Cc1cc(Cl)cc(C(=O)NC2CC2)c1NC(=O)c1cc(Cn2nc(C)c(Br)c2C)nn1-c1ncccc1Cl [I-1-271] is higher in logP: 2.13 for the first, 3.17 for the second.

Going from Cc1cc(I)cc(C(=O)NC(C)C)c1NC(=O)c1cc(Cn2nc(C(F)F)c([N+](=O)[O-])c2C(F)F)nn1-c1ncccc1Cl [I-1-267] to CNC(=O)c1cc(I)cc(C)c1NC(=O)c1cc(Cn2nc(C(F)F)c([N+](=O)[O-])c2C(F)F)nn1-c1ncccc1Cl [I-1-278], the logP falls from 3.67 to 3.25.

Going from Cc1cc(I)cc(C(=O)NC2CC2)c1NC(=O)c1cc(Cn2nc(C(F)F)c([N+](=O)[O-])c2C(F)F)nn1-c1ncccc1Cl [I-1-268] to Cc1cc(I)cc(C(=O)NC2CCCCC2)c1NC(=O)c1cc(Cn2nc(C(F)(F)F)nc2C(F)(F)F)nn1-c1ncccc1Cl [I-1-281], the logP rises from 3.44 to 4.54.

Compared with Cc1cc(Cl)cc(C(=O)NC(C)C)c1NC(=O)c1cc(Cn2nc(C)c(Br)c2C)nn1-c1ncccc1Cl [I-1-269], CNC(=O)c1cc(Cl)cc(C)c1NC(=O)c1cc(Cn2nc(C)c(Br)c2C)nn1-c1ncccc1Cl [I-1-270] is lower in logP: 3.4 for the first, 2.95 for the second.

CCNC(=O)c1cc(I)cc(C)c1NC(=O)c1cc(Cn2cc(C(F)(F)C(F)(F)F)c(C(F)(F)C(F)(F)F)n2)nn1-c1ncccc1Cl [I-1-274] and Cc1cc(I)cc(C(=O)NC2CC2)c1NC(=O)c1cc(Cn2cc(C(F)(F)C(F)(F)F)c(C(F)(F)C(F)(F)F)n2)nn1-c1ncccc1Cl [I-1-275] are within 0.2 log units of each other in logP: 4.74 for the first, 4.71 for the second.

Cc1cc(I)cc(C(=O)NC2CCCCCCCCCCC2)c1NC(=O)c1cc(Cn2nc(C(F)(F)F)nc2C(F)(F)F)nn1-c1ncccc1Cl [I-1-280] showed a logP of 6.56.
